# “Also recorded” adds a separate entry of the source.
# What was measured:
# [1] = Body distribution and serum levels after oral administration; format: in vivo, mouse; settings: post-administration
# Protocol: For all biodistribution studies we used a fluorescent marker for tracking Lodamin. Mice were administered 6-coumarin labeled mPEG-PLA by oral gavage for 3 d (100 μl of 1.5 mg/ml). On the third day of treatment, after 8 h of fasting, animals were sacrificed and spleen, kidney, brain, lungs, liver, intestine, stomach, and bladder were collected. The fluorescent 6-coumarin was extracted from the tissues by incubation with formamide for 48 h at 25° C. Samples were centrifuged and signal intensity of fluorescence of supernatants was detected with a Wallac 1420 VICTOR plate-reader (Perkin-Elmer Life Sciences) with excitation/emission at 488 nm/530 nm. […] Tissue autofluorescence was corrected by subtracting the fluorescent signal of non-treated mouse organs from the respective readings in treated mice. Similarly, levels of fluorescent signal in mouse sera were measured in different time points (1, 2, 4, 8, 24, 48 and 72 h) using excitation/emission readings at 488 nm/530 nm.
# In order to analyze cell uptake in the different tissues in tumor bearing mice, PEG-PLA-rhodamine micelles (100 μl of 1.5 mg/ml) or water were orally administered to C57Bl/6J mice bearing LLC tumors (200 mm^3) for 3 d. […] These suspensions were analyzed by flow cytometry in order to quantify the uptake of micelles into different tissue cells when compared to those in the untreated mouse.
# [2] = tested on: LLC tumors; test: Oral Lodamin vs free TNP-470, primary Lewis lung carcinoma tumor experiments; format: in vivo, mouse; settings: free TNP-470 given orally, 30 mg/kg q.o.d.
# Protocol: For tumor experiments: LLC cells (1×10^6) or B16/F10 melanoma cells (1×10^6) were implanted subcutaneously in 8 week old C57Bl/6J male mice (Jackson Laboratories, Bar Harbor, Me.). Oral availability of free TNP-470 was compared to that of Lodamin. A dose of 30 mg/kg q.o.d. of free TNP-470 and an equivalent dose of Lodamin (Lodamin, 6 mg in 100 μl/d) were administered to LLC tumor bearing mice (˜100 mm^3) and tumor growth was followed for 18 d. Free drug was given as a suspension in double distilled water and freshly prepared before each dose. Additionally, we compared different doses and frequencies of Lodamin treatment: 15 mg/kg q.d., 15 mg/kg q.o.d. and 30 mg/kg q.o.d. To eliminate any possible effect of the vehicle (polymer without drug) one group of mice was given micelles without drug and tumor progression was compared to water treated mice.
# For the melanoma tumor experiment, a dose of 15 mg/kg q.d. Lodamin was administered to B16/F10 melanoma bearing mice. In all experiments, tumor size and animal weight were monitored every 2 d. Tumor volume was measured with calipers in two diameters as follows: (width)^2×(length)×0.52. Note that all the above Lodamin doses are presented as TNP-470 equivalent.
# [3] = tested on: murine, human and metastatic tumors; settings: mice, cited from earlier work
# [4] = Balance beam motor coordination test (neurotoxicity); format: in vivo, mouse; settings: free TNP-470 injected subcutaneously 30 mg/kg q.o.d., vs control
# Protocol: A slightly modified balance beam motor coordination test was performed on three groups of mice: Oral Lodamin treated mice (30 mg/kg eq. q.o.d.), free TNP-470 (30 mg/kg) subcutaneously injected mice and water treated mice (administered by gavage). The mice were pretreated for 14 d (n=4-5 per group) and then the mice were allowed to acclimate to the procedure room for 1 h, after which they were trained in 3 trials to cross a wide (20 mm width×1 m length) balance beam. All the mice crossed the wide beam without making foot-slip errors. The mice were then trained on a narrow (4 mm width×1 m length) beam for 3 trials. At the end of the training trials, no freezing behavior was observed, and the mice would start to walk within 4 seconds of being placed on the beam. The mice were then videotaped as they performed in 3 test trials of 3 beam crossings each—a total of 9 crossings per mouse. The 3 trials were separated by at least 1 h to avoid fatigue of the mice. Videotaped crossings were scored for number of foot-slip errors and time to cross. All experiments and scoring of the different groups were performed by an investigator who has been no knowledge regarding the treatment regime of the mice.
# [5] = parent drug; cited from earlier work
# [6] = tested on: obesity; settings: mice; cited from earlier work
# [7] = tested on: RAGE and HMGB-1; test: RAGE and HMGB-1 protein levels in HMVEC; format: cell-based; settings: 0.1-100 nM
# Protocol: A dose dependent effect on RAGE expression was detected.
# RPE cells were cultivated as has been previously described^59. […] HMVECs, were purchased from Cambrex Bio Science Inc. (Rockland, Me.) and were maintained on collagen I coated plates with endothelial cell growth medium containing 2% FBS (EGM-2; Cambrex, Inc.) at 37° C. with humidified 95% air/5% CO2.
# Lodamin Reduces MCP-1 and VEGF Induced Vessel Permeability
# [8] = high chemotherapeutic doses; cited from earlier work
substance,measurement,setting,value
6-O—(N-chloroacetylcarbamoyl)fumagillol [TNP-470],time up to which free drug was detected in mice sera,[1],up to 2 h
same,effect on growth of subcutaneous LLC tumors,[2],no inhibition; also recorded: had no effect
same,inhibition of growth of human tumors,[3],up to 100%
same,inhibition of growth of metastatic tumors,[3],up to 100%
same,inhibition of growth of murine tumors,[3]; mostly 30 mg/kg subcutaneously every other day,up to 91%
same,balance beam foot-slip errors,[4],over twice as many errors
same,plasma half-life,[5],a few minutes
same,effect on obesity,[6],prevent diet-induced and genetic obesity
same,RAGE and HMGB-1 levels,[7],reduced in a dose dependent manner
same,neurotoxicity in patients,[8],many patients experience neurotoxicity

# — patent publication US9789199B2, “MetAP-2 inhibitor polymersomes for therapeutic administration” (priority 2007, dated 2017)
